pIC50: −log10 of the molar value.
Test system: 616215-338-R-J1-PDC spheroids with HUVEC/MSC, viability
Assay: Anticancer human tumor 616215-338-R-J1-PDC patient-derived colon adenocarcinoma cell line growth inhibition [PI3K]
Conditions: for pIC50: curve of first compound; for viability, T/C: stronger effect = lower value
Method in brief: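 High-throughput combination screen: PI3K inhibitors crossed with targeted small molecules on complex spheroids of tumor cells, HUVEC and MSCs at 37 degrees C, 5% CO2. Top concentration was at or near clinical Cmax (otherwise 10 microM), with half-log decrements.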

[1] = second compound 0.0316 µM, first compound 0.0316 µM
[2] = second compound 0.0316 µM, first compound 0.1 µM
[3] = second compound 0.0316 µM, first compound 0.316 µM
[4] = second compound 0.0316 µM, first compound 1 µM
[5] = second compound 0.0316 µM, first compound 3.16 µM
[6] = second compound 0.0316 µM, first compound 10 µM
[7] = second compound 0.1 µM, first compound 0.0316 µM
[8] = second compound 0.1 µM, first compound 0.1 µM
[9] = second compound 0.1 µM, first compound 0.316 µM
[10] = second compound 0.1 µM, first compound 1 µM
[11] = second compound 0.1 µM, first compound 3.16 µM
[12] = second compound 0.1 µM, first compound 10 µM
[13] = second compound 0.316 µM, first compound 0.0316 µM
[14] = second compound 0.316 µM, first compound 0.1 µM
[15] = second compound 0.316 µM, first compound 0.316 µM
[16] = second compound 0.316 µM, first compound 1 µM
[17] = second compound 0.316 µM, first compound 3.16 µM
[18] = second compound 0.316 µM, first compound 10 µM
[19] = second compound 1 µM, first compound 0.0316 µM
[20] = second compound 1 µM, first compound 0.1 µM
[21] = second compound 1 µM, first compound 0.316 µM
[22] = second compound 1 µM, first compound 1 µM
[23] = second compound 1 µM, first compound 3.16 µM
[24] = second compound 1 µM, first compound 10 µM
[25] = second compound 3.16 µM, first compound 0.0316 µM
[26] = second compound 3.16 µM, first compound 0.1 µM
[27] = second compound 3.16 µM, first compound 0.316 µM
[28] = second compound 3.16 µM, first compound 1 µM
[29] = second compound 3.16 µM, first compound 3.16 µM
[30] = second compound 3.16 µM, first compound 10 µM
[31] = second compound 10 µM, first compound 0.0316 µM
[32] = second compound 10 µM, first compound 0.1 µM
[33] = second compound 10 µM, first compound 0.316 µM
[34] = second compound 10 µM, first compound 1 µM
[35] = second compound 10 µM, first compound 3.16 µM
[36] = second compound 10 µM, first compound 10 µM
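Note: spheroids exposed to agents for seven days before the viability read.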

## Cn1ncc(Cl)c1-c1cc(C(=O)NC(CN)Cc2cccc(F)c2)sc1Cl (stereo unspecified) + CC(Nc1ncnc2nc[nH]c12)c1cc2cccc(Cl)c2c(=O)n1-c1ccccc1
Second compound 0.0316 µM
  pIC50: 5.27
Second compound 0.1 µM
  pIC50: 5.38
Second compound 0.316 µM
  pIC50: 5.38
Second compound 1 µM
  pIC50: 5.35
Second compound 3.16 µM
  pIC50: 5.50
Second compound 10 µM
  pIC50: 5.48
[1]
  viability, T/C: 106%
[2]
  viability, T/C: 87.6%
[3]
  viability, T/C: 98%
[4]
  viability, T/C: 93.7%
[5]
  viability, T/C: 75.7%
[6]
  viability, T/C: 19.8%
[7]
  viability, T/C: 107%
[8]
  viability, T/C: 103%
[9]
  viability, T/C: 100%
[10]
  viability, T/C: 92%
[11]
  viability, T/C: 60.7%
[12]
  viability, T/C: 16.4%
[13]
  viability, T/C: 98.4%
[14]
  viability, T/C: 100%
[15]
  viability, T/C: 104%
[16]
  viability, T/C: 95%
[17]
  viability, T/C: 59.5%
[18]
  viability, T/C: 19.6%
[19]
  viability, T/C: 95.9%
[20]
  viability, T/C: 88.5%
[21]
  viability, T/C: 105%
[22]
  viability, T/C: 94.5%
[23]
  viability, T/C: 64%
[24]
  viability, T/C: 17.6%
[25]
  viability, T/C: 104%
[26]
  viability, T/C: 113%
[27]
  viability, T/C: 96.1%
[28]
  viability, T/C: 82.1%
[29]
  viability, T/C: 50%
[30]
  viability, T/C: 19.6%
[31]
  viability, T/C: 98.3%
[32]
  viability, T/C: 112%
[33]
  viability, T/C: 106%
[34]
  viability, T/C: 75.1%
[35]
  viability, T/C: 54.7%
[36]
  viability, T/C: 20.6%

## Cn1nccc1Nc1nccc(-c2ccn(C(CO)c3ccc(Cl)c(F)c3)c(=O)c2)n1 (stereo unspecified) + CC(Nc1ncnc2nc[nH]c12)c1cc2cccc(Cl)c2c(=O)n1-c1ccccc1
Second compound 0.0316 µM
  pIC50: 5.29
Second compound 0.1 µM
  pIC50: 5.25
Second compound 0.316 µM
  pIC50: 5.53
Second compound 1 µM
  pIC50: 5.24
Second compound 3.16 µM
  pIC50: 5.58
Second compound 10 µM
  pIC50: 5.82
[1]
  viability, T/C: 95.6%
[2]
  viability, T/C: 89.2%
[3]
  viability, T/C: 89.7%
[4]
  viability, T/C: 68.1%
[5]
  viability, T/C: 57%
[6]
  viability, T/C: 42.7%
[7]
  viability, T/C: 106%
[8]
  viability, T/C: 102%
[9]
  viability, T/C: 84.3%
[10]
  viability, T/C: 77.3%
[11]
  viability, T/C: 65.4%
[12]
  viability, T/C: 36.5%
[13]
  viability, T/C: 101%
[14]
  viability, T/C: 102%
[15]
  viability, T/C: 80.6%
[16]
  viability, T/C: 67.1%
[17]
  viability, T/C: 50.8%
[18]
  viability, T/C: 29.9%
[19]
  viability, T/C: 109%
[20]
  viability, T/C: 98.6%
[21]
  viability, T/C: 71.8%
[22]
  viability, T/C: 72.9%
[23]
  viability, T/C: 61.2%
[24]
  viability, T/C: 40.6%
[25]
  viability, T/C: 99.1%
[26]
  viability, T/C: 105%
[27]
  viability, T/C: 93.4%
[28]
  viability, T/C: 71.3%
[29]
  viability, T/C: 47.1%
[30]
  viability, T/C: 28%
[31]
  viability, T/C: 111%
[32]
  viability, T/C: 99%
[33]
  viability, T/C: 72.6%
[34]
  viability, T/C: 57.8%
[35]
  viability, T/C: 39.7%
[36]
  viability, T/C: 12.7%

## Cn1ncnc1[C@H]1c2n[nH]c(=O)c3cc(F)cc(c23)N[C@@H]1c1ccc(F)cc1 + CC(Nc1ncnc2nc[nH]c12)c1cc2cccc(Cl)c2c(=O)n1-c1ccccc1
Second compound 0.0316 µM
  pIC50: < 7.00
Second compound 0.1 µM
  pIC50: < 7.00
Second compound 0.316 µM
  pIC50: < 7.00
Second compound 1 µM
  pIC50: < 7.00
Second compound 3.16 µM
  pIC50: < 7.00
Second compound 10 µM
  pIC50: < 7.00
Second compound 0.0316 µM, first compound 0.000316 µM
  viability, T/C: 104%
Second compound 0.0316 µM, first compound 0.001 µM
  viability, T/C: 104%
Second compound 0.0316 µM, first compound 0.00316 µM
  viability, T/C: 102%
Second compound 0.0316 µM, first compound 0.01 µM
  viability, T/C: 96.8%
[1]
  viability, T/C: 105%
[2]
  viability, T/C: 96.8%
Second compound 0.1 µM, first compound 0.000316 µM
  viability, T/C: 87.6%
Second compound 0.1 µM, first compound 0.001 µM
  viability, T/C: 97.8%
Second compound 0.1 µM, first compound 0.00316 µM
  viability, T/C: 97%
Second compound 0.1 µM, first compound 0.01 µM
  viability, T/C: 92.9%
[7]
  viability, T/C: 101%
[8]
  viability, T/C: 93.5%
Second compound 0.316 µM, first compound 0.000316 µM
  viability, T/C: 98.5%
Second compound 0.316 µM, first compound 0.001 µM
  viability, T/C: 95.6%
Second compound 0.316 µM, first compound 0.00316 µM
  viability, T/C: 106%
Second compound 0.316 µM, first compound 0.01 µM
  viability, T/C: 96.9%
[13]
  viability, T/C: 96.9%
[14]
  viability, T/C: 101%
Second compound 1 µM, first compound 0.000316 µM
  viability, T/C: 101%
Second compound 1 µM, first compound 0.001 µM
  viability, T/C: 109%
Second compound 1 µM, first compound 0.00316 µM
  viability, T/C: 99.7%
Second compound 1 µM, first compound 0.01 µM
  viability, T/C: 105%
[19]
  viability, T/C: 100%
[20]
  viability, T/C: 91.5%
Second compound 3.16 µM, first compound 0.000316 µM
  viability, T/C: 91.5%
Second compound 3.16 µM, first compound 0.001 µM
  viability, T/C: 108%
Second compound 3.16 µM, first compound 0.00316 µM
  viability, T/C: 106%
Second compound 3.16 µM, first compound 0.01 µM
  viability, T/C: 90%
[25]
  viability, T/C: 94.9%
[26]
  viability, T/C: 100%
Second compound 10 µM, first compound 0.000316 µM
  viability, T/C: 111%
Second compound 10 µM, first compound 0.001 µM
  viability, T/C: 106%
Second compound 10 µM, first compound 0.00316 µM
  viability, T/C: 102%
Second compound 10 µM, first compound 0.01 µM
  viability, T/C: 96.7%
[31]
  viability, T/C: 100%
[32]
  viability, T/C: 95%

Source: PubChem BioAssay AID1963978 (Molecular Pharmacology Branch, DTP, NCI, 2024)
